Measurements reported in article PMC9027131, “Dual PI3K/Akt Inhibitors Bearing Coumarin-Thiazolidine Pharmacophores as Potential Apoptosis Inducers in MCF-7 Cells” (Pharmaceuticals, 2022).

How the values were obtained:
[1] = system: MCF-7 cells; experiment: MTT cytotoxicity assay in MCF-7 cells; format: cell-based, human; conditions: Homo sapiens, MCF7, 48 h, means ± sd, n = 3
Procedure: The in vitro anticancer activity of the designed coumarin-thiosemicarbazones and coumarin-thiazolidine-4-one hybrids against MCF-7 cells was tested using the MTT assay, and 5-fluorouracil (5-FU) was used as the reference drug. The tested compounds were used in different concentrations, and cell survival was determined after incubation for 48 h as reported. The cytotoxic activity is represented in Table 1 as IC50 (µM) values.
MCF-7 breast cancer cell line (ATCC® HTB-22™) plus non-tumorigenic epithelial cell line (MCF 10, ATCC® CRL-10317™) were supplied from VACSERA (Cairo, Egypt) and cultured in Dulbecco’s Modified Eagle Medium (Invitrogen-Life Technologies, Carlsbad, CA, USA) with 1% antibiotic solution (streptomycin–penicillin) plus 10% fetal bovine serum (Hyclone) in a 5% (v/v) humidified CO2 incubator at 37 °C.
Firstly, cells were kept in a humidified atmosphere (37 °C, 24 h), and then incubated with serial concentrations of the tested compounds. After 48 h, the medium was aspirated, and then cells were incubated with 5% MTT solution (M-5655; Sigma Aldrich, St. Louis, MO USA) (200 µL/well, 2 h), allowing the dye to metabolize into the colored insoluble formazan complex that was then dissolved in the appropriate solubilization solution (M-8910) (200 µL/well), for 30 min with gentle mixing at room temperature. The UV absorbance was measured using a microplate reader (570 nm), and cell viability was determined with respect to untreated control cells. […] The values were means ± sd; n = 3.

[2] = target: T1, PI3K-γ (Homo sapiens, UniProt P48736); experiment: PI3Kγ (p110γ/PIK3R5) enzyme inhibition assay kit; format: biochemical; conditions: means ± sd, n = 3; read-out: IC50 (µM) PI3K-γ Isoform
T1 construct: purchased BPS Bioscience, Inc 79803
T1 sequence (P48736 whole entry, canonical isoform): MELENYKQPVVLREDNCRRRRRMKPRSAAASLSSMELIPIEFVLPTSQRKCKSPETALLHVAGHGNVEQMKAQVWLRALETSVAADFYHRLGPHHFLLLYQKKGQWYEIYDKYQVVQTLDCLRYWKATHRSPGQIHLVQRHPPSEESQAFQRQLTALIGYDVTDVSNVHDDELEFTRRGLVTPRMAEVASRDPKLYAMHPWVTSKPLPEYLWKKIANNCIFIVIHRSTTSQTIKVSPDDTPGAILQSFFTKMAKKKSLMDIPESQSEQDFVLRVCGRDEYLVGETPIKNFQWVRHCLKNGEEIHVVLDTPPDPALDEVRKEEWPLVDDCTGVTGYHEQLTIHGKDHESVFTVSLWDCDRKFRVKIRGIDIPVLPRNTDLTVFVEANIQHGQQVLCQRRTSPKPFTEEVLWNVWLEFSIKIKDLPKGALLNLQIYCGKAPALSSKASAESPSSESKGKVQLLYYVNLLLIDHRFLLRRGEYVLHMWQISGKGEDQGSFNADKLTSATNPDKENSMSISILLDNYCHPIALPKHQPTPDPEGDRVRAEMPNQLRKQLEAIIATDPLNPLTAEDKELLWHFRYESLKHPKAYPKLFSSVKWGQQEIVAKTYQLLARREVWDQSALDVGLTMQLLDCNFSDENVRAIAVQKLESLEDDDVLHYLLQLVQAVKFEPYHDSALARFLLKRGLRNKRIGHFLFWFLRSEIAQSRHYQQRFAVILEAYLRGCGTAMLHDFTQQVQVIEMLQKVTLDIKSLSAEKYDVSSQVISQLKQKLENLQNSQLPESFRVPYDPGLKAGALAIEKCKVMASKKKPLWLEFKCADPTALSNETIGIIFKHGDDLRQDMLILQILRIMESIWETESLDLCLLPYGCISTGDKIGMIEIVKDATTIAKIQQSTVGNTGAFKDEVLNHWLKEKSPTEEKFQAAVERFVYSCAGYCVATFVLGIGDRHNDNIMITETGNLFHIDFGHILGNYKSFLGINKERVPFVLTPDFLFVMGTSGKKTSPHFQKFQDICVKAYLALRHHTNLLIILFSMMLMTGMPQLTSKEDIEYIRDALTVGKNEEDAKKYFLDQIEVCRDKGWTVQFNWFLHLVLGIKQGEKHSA
T1 sequence (Q8WYR1 whole entry partner, canonical isoform): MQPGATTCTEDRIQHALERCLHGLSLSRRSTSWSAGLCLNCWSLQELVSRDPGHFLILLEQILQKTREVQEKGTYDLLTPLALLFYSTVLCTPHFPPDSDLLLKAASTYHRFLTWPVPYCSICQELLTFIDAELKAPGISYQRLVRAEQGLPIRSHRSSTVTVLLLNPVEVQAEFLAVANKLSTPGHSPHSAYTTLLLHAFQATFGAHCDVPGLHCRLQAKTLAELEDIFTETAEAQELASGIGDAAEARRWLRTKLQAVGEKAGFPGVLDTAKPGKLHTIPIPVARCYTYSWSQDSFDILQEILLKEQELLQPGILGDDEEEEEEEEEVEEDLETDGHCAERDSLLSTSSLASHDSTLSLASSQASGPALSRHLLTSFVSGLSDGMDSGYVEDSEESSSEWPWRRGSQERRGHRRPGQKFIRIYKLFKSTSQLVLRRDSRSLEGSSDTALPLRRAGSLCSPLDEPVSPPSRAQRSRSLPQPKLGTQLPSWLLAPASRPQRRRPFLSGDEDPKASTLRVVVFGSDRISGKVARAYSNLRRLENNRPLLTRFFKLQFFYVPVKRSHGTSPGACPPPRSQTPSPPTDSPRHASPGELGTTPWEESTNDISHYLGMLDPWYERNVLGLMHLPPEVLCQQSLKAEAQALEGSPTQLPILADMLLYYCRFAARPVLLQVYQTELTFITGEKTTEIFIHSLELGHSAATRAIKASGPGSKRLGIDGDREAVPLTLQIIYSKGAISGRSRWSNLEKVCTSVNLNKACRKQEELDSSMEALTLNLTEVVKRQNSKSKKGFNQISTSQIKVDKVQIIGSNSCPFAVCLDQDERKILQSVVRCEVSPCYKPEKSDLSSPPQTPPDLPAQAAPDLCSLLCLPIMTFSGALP
Text: Accumulating evidence highlighted that PI3K signaling pathway upregulation is highly implicated in breast cancer development and disease progression as well as resistance to hormones and cytotoxic therapy. Therefore, it is essential to elucidate the effect of the novel compound, VIIb, on the PI3K/Akt signaling pathway by using in vitro PI3K class 1A enzyme inhibition assay conducted on PI3K-α and PI3K-γ isoforms as well as an Akt-1 enzyme inhibition assay. […] Furthermore, targeting the PI3K-γ isoform in breast cancer could contribute to enhancing the anti-tumor immunity.
The in vitro inhibition of PI3K and Akt kinase activities by VIIb was assessed using a PI3Kα (p110α/p85) assay kit (Catalog #79781; BPS Bioscience, Inc, San Diego, CA, USA), PI3Kγ (p110γ/PIK3R5) assay kit (Catalog #79803; BPS Bioscience, Inc, San Diego, CA, USA), and Akt Kinase Activity assay kit (ab139436; Abcam, Cambridge, UK) following the manufacturer’s instructions as described previously. The results were expressed as IC50 values using dose–response curves and linear regression equations.

[3] = system: Cyclin D1, p-PI3K, p-Akt; experiment: Western blot in MCF-7 cells; format: cell-based, human; conditions: MCF-7, IC50, 48 h, vs control untreated cells
Text: Cyclin D1 activity is essential for the G1 to S phase transition. Moreover, the PI3K/Akt axis is crucial for cell growth and apoptosis. The effects of VIIb on Cyclin D1 and the PI3K/Akt pathway in MCF-7 cells was investigated adopting reported procedures. […] Herein, Western blot results confirmed our previous findings, highlighting the ability of the novel compound, VIIb, to inhibit the PI3K/Akt signaling pathway. […] Cyclin D1 is a proto-oncogene and a major regulator of cell cycle progression. In addition, Cyclin D1 overexpression has been linked to both breast tumorigenesis and tumor progression as well as to the development of endocrine resistance in breast cancer cells.
Whole-cell protein lysates obtained from both control as well as VIIb-treated (IC50 (µM), for 48 h) MCF-7 cells were resolved by SDS-PAGE, and then immunoblotting was conducted with antibodies against cyclin D, p-Akt, and p-PI3K compared to the housekeeping protein β-Actin.
Western blot analysis was conducted using the following primary antibodies: anti-p-Akt (1:5000; ab81283), anti-Cyclin D1 (1:1000; ab226977), anti-p-PI3K (1:1000; ab278545), and anti-beta-actin (1:1000; ab8227). Firstly, VIIb-treated and untreated cells were rinsed with PBS, and then cold lysis buffer was added to induce cell lysis. After centrifugation, the supernatants were collected, and harvested proteins were quantified by Bradford assay and then resolved on SDS-PAGE followed by electroblotting onto polyvinylidene fluoride membranes. Later, membrane blocking was conducted using 5% skimmed milk in 0.1% Tween-20 in PBS (PBST). Then membranes were incubated with the aforementioned primary antibodies at 4 °C. Following 12-h incubation, the membranes were soaked in PBST thrice followed by 1-h incubation with appropriate secondary antibodies. Antibodies were supplied from Abcam (Cambridge, UK). The signals were visualized with a chemiluminescence ECL kit (Perkin Elmer, Waltham, MA, USA) following the manufacturer’s instructions, and images were obtained using a Biorad Imager.

IC50 [2]: 34.7 ± 1.88 µM
SMILES: C/C(=N/N=C1/SCC(=O)N1C(=O)c1ccccc1)c1c(O)ccc2c(C)cc(=O)oc12 [VIIb]
IC50 [1]: 1.03 ± 0.05 µM
level of Cyclin D1 [3]: effectively suppressed
level of p-Akt [3]: effectively suppressed
level of p-PI3K [3]: effectively suppressed
